Measured values reported in US12358886B2, “Heterocyclic compounds for use in the treatment of cancer” (Artios Pharma Limited, priority 2019, dated 2025).

What follows are compounds tested against Polθ protein (amino acids 2-2590) (Homo sapiens, UniProt O75417) (assay: Polθ full length enzyme potency assay (PicoGreen)). Conditions: Polθ IC50 (nM), full length N-His, C-term FLAG tagged Polθ, PicoGreen fluorescence, 12 point concentration response.
Polθ protein (amino acids 2-2590), sequence (O75417 2-2590): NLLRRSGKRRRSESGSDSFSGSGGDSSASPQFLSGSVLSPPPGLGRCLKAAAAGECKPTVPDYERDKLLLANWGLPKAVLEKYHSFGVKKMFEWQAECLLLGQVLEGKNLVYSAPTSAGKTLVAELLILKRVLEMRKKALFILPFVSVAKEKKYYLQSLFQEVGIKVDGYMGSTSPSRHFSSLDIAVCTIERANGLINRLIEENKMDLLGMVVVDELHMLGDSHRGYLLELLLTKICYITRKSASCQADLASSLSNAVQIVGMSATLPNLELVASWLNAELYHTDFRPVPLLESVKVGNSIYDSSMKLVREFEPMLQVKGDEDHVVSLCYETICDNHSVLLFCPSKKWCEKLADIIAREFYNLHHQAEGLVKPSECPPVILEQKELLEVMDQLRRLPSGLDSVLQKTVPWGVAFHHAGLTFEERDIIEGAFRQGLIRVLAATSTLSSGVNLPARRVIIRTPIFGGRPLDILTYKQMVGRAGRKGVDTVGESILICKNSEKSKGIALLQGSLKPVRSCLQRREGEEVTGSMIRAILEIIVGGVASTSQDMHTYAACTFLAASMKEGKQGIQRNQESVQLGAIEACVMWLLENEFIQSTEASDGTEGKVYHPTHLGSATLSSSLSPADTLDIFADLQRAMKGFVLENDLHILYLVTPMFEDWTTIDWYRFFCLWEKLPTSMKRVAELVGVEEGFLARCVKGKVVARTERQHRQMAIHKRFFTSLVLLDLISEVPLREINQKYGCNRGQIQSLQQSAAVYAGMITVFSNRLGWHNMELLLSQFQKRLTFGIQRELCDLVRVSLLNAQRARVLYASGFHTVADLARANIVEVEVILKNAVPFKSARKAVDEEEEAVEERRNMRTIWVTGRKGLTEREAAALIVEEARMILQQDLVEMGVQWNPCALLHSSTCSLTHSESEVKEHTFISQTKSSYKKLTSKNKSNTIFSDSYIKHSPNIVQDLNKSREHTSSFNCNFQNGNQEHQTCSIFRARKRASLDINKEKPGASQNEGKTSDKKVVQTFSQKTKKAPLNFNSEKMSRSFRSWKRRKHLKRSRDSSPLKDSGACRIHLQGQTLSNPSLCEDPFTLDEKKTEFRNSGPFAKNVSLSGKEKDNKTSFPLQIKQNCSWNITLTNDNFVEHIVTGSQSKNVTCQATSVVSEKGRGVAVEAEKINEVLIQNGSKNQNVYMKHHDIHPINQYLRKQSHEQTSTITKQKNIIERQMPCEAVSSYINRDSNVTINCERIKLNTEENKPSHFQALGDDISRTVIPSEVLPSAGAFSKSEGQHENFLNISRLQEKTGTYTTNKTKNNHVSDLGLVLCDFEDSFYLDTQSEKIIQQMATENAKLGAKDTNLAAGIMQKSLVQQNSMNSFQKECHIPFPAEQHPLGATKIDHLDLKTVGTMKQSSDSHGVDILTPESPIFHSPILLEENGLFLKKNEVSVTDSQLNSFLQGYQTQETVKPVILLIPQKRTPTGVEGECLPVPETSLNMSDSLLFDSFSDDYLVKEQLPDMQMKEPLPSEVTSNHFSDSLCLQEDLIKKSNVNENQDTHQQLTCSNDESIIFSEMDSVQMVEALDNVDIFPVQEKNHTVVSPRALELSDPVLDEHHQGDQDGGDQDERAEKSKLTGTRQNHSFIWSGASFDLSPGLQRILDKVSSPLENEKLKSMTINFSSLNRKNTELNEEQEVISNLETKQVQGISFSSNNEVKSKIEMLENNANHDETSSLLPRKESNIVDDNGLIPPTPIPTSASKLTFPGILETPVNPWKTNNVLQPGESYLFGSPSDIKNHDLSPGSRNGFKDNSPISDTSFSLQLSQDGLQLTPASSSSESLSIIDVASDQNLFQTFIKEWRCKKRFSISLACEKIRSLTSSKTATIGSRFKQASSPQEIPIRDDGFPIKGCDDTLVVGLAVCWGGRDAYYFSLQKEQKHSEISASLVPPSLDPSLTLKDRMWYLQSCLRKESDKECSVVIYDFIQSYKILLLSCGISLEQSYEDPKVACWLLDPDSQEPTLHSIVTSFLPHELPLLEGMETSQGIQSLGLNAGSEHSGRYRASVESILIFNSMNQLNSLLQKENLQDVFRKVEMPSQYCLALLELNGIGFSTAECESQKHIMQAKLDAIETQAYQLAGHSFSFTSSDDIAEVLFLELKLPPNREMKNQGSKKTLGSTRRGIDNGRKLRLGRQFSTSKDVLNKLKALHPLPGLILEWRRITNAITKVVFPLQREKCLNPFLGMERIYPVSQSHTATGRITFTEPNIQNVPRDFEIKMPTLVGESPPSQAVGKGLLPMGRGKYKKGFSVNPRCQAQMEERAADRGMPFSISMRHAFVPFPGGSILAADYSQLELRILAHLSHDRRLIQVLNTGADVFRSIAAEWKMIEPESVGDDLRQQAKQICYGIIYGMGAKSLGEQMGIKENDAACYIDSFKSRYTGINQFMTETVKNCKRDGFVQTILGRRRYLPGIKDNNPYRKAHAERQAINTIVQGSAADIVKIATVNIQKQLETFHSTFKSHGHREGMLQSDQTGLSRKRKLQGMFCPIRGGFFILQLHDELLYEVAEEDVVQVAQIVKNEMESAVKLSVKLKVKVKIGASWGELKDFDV

| Structure (SMILES) | IC50 |
| --- | --- |
| Cc1cc(C(F)(F)F)cc(N2C(=O)[C@H](O)[C@H](O)[C@H]2C(=O)N(C)c2ccc(F)c(Cl)c2F)n1 [Example 71, (2S,3R,4R)—N-(3-Chloro-2,4-difluorophenyl)-3,4-dihydroxy-N-methyl-1-(6-methyl-4-(trifluoromethyl)pyridin-2-yl)-5-oxopyrrolidine-2-carboxamide] | 10 nM |
| CO[C@H]1C[C@@H](C(=O)N(C)c2cccc(C)c2)N(c2nc(C)cc(C(F)(F)F)c2C#N)C1 [Example 36, (2S,4S)-1-(3-Cyano-6-methyl-4-(trifluoromethyl)pyridin-2-yl)-4-methoxy-N-methyl-N-(m-tolyl)pyrrolidine-2-carboxamide] | 48 nM |
| Cc1cccc(N(C)C(=O)[C@@H]2C[C@H](O)CN2c2cc(C(F)(F)F)cc(C)n2)c1 [Example 27, (2S,4S)-4-Hydroxy-N-methyl-1-(6-methyl-4-(trifluoromethyl)pyridin-2-yl)-N-(m-tolyl)pyrrolidine-2-carboxamide] | 12 nM |
| CCc1cc(C(F)(F)F)cc(N2C(=O)OC[C@H]2C(=O)N(C)c2ccc(F)c(Cl)c2)n1 [Example 115, (S)—N-(3-Chloro-4-fluorophenyl)-3-(6-ethyl-4-(trifluoromethyl)pyridin-2-yl)-N-methyl-2-oxooxazolidine-4-carboxamide] | 54 nM |
| CCN(C(=O)[C@@H]1C[C@H](N(C)C2COC2)CN1c1cc(C(F)(F)F)cc(C)n1)c1ccc(F)c(F)c1 [Example 146, (2S,4S)-N-(3,4-Difluorophenyl)-N-ethyl-4-(methyl(oxetan-3-yl)amino)-1-(6-methyl-4-(trifluoromethyl)pyridin-2-yl)pyrrolidine-2-carboxamide] | 163 nM |
| Cc1cc(C(F)(F)F)cc(N2C(=O)N(S(C)(=O)=O)C[C@H]2C(=O)N(C)c2ccc(F)c(Cl)c2)n1 [Example 159, (S)—N-(3-Chloro-4-fluorophenyl)-N-methyl-3-(6-methyl-4-(trifluoromethyl)pyridin-2-yl)-1-(methylsulfonyl)-2-oxoimidazolidine-4-carboxamide] | 178 nM |
| Cc1cc(C(F)(F)F)c(C#N)c(N2CCC[C@H]2C(=O)N(C)c2ccc3ccn(C)c3n2)n1 [Example 243, (S)-1-(3-Cyano-6-methyl-4-(trifluoromethyl)pyridin-2-yl)-N-methyl-N-(1-methyl-1H-pyrrolo[2,3-b]pyridin-6-yl)pyrrolidine-2-carboxamide] | 39 nM |
| Cc1cc(C(F)(F)F)cc(N2C(=O)NC[C@H]2C(=O)N(c2ccc(F)c(Cl)c2F)C2CC2)n1 [Example 161, (S)—N-(3-Chloro-2,4-difluorophenyl)-N-cyclopropyl-3-(6-methyl-4-(trifluoromethyl)-pyridin-2-yl)-2-oxoimidazolidine-4-carboxamide] | 12 nM |
| Cc1cc(C(F)(F)F)cc(N2C(=O)N(CCN3CC(O)C3)C[C@H]2C(=O)N(C)c2ccc(F)c(Cl)c2F)n1 [Example 202, (S)-N-(3-Chloro-2,4-difluorophenyl)-1-(2-(3-hydroxyazetidin-1-yl)ethyl)-N-methyl-3-(6-methyl-4-(trifluoromethyl)pyridin-2-yl)-2-oxoimidazolidine-4-carboxamide] | 7 nM |
| Cc1cc(C(F)(F)F)cc(N2C(=O)N(CCN3CCS(=O)(=O)CC3)C[C@H]2C(=O)N(C)c2ccc(F)c(Cl)c2F)n1 [Example 208, (S)-N-(3-Chloro-2,4-difluorophenyl)-1-(2-(1,1-dioxidothiomorpholino)-ethyl)-N-methyl-3-(6-methyl-4-(trifluoromethyl)pyridin-2-yl)-2-oxoimidazolidine-4-carboxamide] | 9 nM |
| Cc1cc(C(F)(F)F)cc(N2C(=O)N(CCNS(C)(=O)=O)C[C@H]2C(=O)N(C)c2ccc(F)c(Cl)c2)n1 [Example 187, (S)—N-(3-Chloro-4-fluorophenyl)-N-methyl-3-(6-methyl-4-(trifluoromethyl)pyridin-2-yl)-1-(2-(methylsulfonamido)ethyl)-2-oxoimidazolidine-4-carboxamide] | 22 nM |

The next lines start with the values.

| IC50 | Structure (SMILES) |
| --- | --- |
| 11 nM | CCc1ccc(N(C)C(=O)[C@@H]2COC(=O)N2c2cc(C(F)(F)F)cc(C)n2)c(F)c1 [Example 112, (S)—N-(4-Ethyl-2-fluorophenyl)-N-methyl-3-(6-methyl-4-(trifluoromethyl)pyridin-2-yl)-2-oxooxazolidine-4-carboxamide] |
| 13 nM | Cc1cc(C(F)(F)F)cc(N2C(=O)N(CCC(=O)N(C)C)C[C@H]2C(=O)N(C)c2ccc(F)c(Cl)c2)n1 [Example 190, (S)—N-(3-Chloro-4-fluorophenyl)-1-(3-(dimethylamino)-3-oxopropyl)-N-methyl-3-(6-methyl-4-(trifluoromethyl)pyridin-2-yl)-2-oxoimidazolidine-4-carboxamide] |
| 18 nM | COc1cc(N(C)C(=O)[C@@H]2COC(=O)N2c2cc(C(F)(F)F)cc(C)n2)ccc1C [Example 92, (S)-N-(3-Methoxy-4-methylphenyl)-N-methyl-3-(6-methyl-4-(trifluoromethyl)pyridin-2-yl)-2-oxooxazolidine-4-carboxamide] |
| 16 nM | Cc1cc(C(F)(F)F)cc(N2C(=O)OC[C@H]2C(=O)N(C)c2ccc(F)c(Cl)c2)n1 [Example 83, (S)—N-(3-Chloro-4-fluorophenyl)-N-methyl-3-(6-methyl-4-(trifluoromethyl)pyridin-2-yl)-2-oxooxazolidine-4-carboxamide] |
| 10 nM | CCN(C(=O)[C@@H]1[C@H](O)[C@H](O)CN1c1nc(C)cc(C(F)(F)F)c1C#N)c1ccc(F)c(Cl)c1 [Example 57, (2S,3S,4R)-N-(3-Chloro-4-fluoro-phenyl)-1-(3-cyano-6-methyl-4-(trifluoromethyl)pyridin-2-yl)-N-ethyl-3,4-dihydroxypyrrolidine-2-carboxamide] |
| 32 nM | Cc1cc(C(F)(F)F)cc(N2C(=O)N(CCN3CCCC3CO)C[C@H]2C(=O)N(C)c2ccc(F)c(Cl)c2)n1 (single isomer, unassigned; isomer 2) [Example 199] |
| 4 nM | Cc1cc(C(F)(F)F)cc(N2C(=O)NC[C@H]2C(=O)N(C)c2ccc(F)c(Cl)c2)n1 [Example 156, (S)—N-(3-Chloro-4-fluorophenyl)-N-methyl-3-(6-methyl-4-(trifluoromethyl)pyridin-2-yl)-2-oxoimidazolidine-4-carboxamide] |
| 395 nM | CCN(C)c1cc(C(F)(F)F)c(C#N)c(N2C[C@@H](O)C[C@H]2C(=O)N(C)c2cccc(C)c2)n1 [Example 31, (2S,4S)-1-(3-Cyano-6-(ethyl(methyl)amino)-4-(trifluoromethyl)pyridin-2-yl)-4-hydroxy-N-methyl-N-(m-tolyl)pyrrolidine-2-carboxamide] |
| 46 nM | C=Cc1cc(C(F)(F)F)cc(N2C(=O)OC[C@H]2C(=O)N(C)c2ccc(F)c(Cl)c2)n1 [Example 114, (S)—N-(3-Chloro-4-fluorophenyl)-N-methyl-2-oxo-3-(4-(trifluoromethyl)-6-vinylpyridin-2-yl)oxazolidine-4-carboxamide] |
| 8 nM | Cc1cc(C(F)(F)F)cc(N2C(=O)N(CC3(O)CCN(C)C3)C[C@H]2C(=O)N(C)c2ccc(F)c(Cl)c2F)n1 (stereo partly drawn) [Example 223, (4S)—N-(3-Chloro-2,4-difluorophenyl)-1-((3-hydroxy-1-methylpyrrolidin-3-yl)methyl)-N-methyl-3-(6-methyl-4-(trifluoromethyl)pyridin-2-yl)-2-oxoimidazolidine-4-carboxamide] |
| 18 nM | C=Cc1ccc(N(C)C(=O)[C@@H]2COC(=O)N2c2cc(C(F)(F)F)cc(C)n2)c(F)c1 [Example 111, (S)—N-(2-Fluoro-4-vinylphenyl)-N-methyl-3-(6-methyl-4-(trifluoromethyl)pyridin-2-yl)-2-oxooxazolidine-4-carboxamide] |
| 56 nM | CCN(C(=O)[C@@H]1C[C@H](N(C)[C@@H]2CCC[C@H]2O)CN1c1cc(C(F)(F)F)cc(C)n1)c1ccc(F)c(F)c1 [Example 141, (2S,4S)-N-(3,4-Difluorophenyl)-N-ethyl-4-(((1R,2R)-2-hydroxycyclopentyl)(methyl)amino)-1-(6-methyl-4-(trifluoromethyl)pyridin-2-yl)pyrrolidine-2-carboxamide] |
| 4 nM | Cc1cc(C(F)(F)F)cc(N2C(=O)OC[C@H]2C(=O)N(C)c2ccc(F)c(C)c2F)n1 [Example 100, (S)-N-(2,4-Difluoro-3-methylphenyl)-N-methyl-3-(6-methyl-4-(trifluoromethyl)pyridin-2-yl)-2-oxooxazolidine-4-carboxamide] |
| 9 nM | Cc1cc(C(F)(F)F)cc(N2C(=O)N(CCS(C)(=O)=O)C[C@H]2C(=O)N(C)c2ccc(F)c(Cl)c2)n1 [Example 180, (S)—N-(3-Chloro-4-fluorophenyl)-N-methyl-3-(6-methyl-4-(trifluoromethyl)pyridin-2-yl)-1-(2-(methylsulfonyl)ethyl)-2-oxoimidazolidine-4-carboxamide] |
| 9 nM | Cc1cc(C(F)(F)F)cc(N2C(=O)N(CCN3CCNCC3)C[C@H]2C(=O)N(C)c2ccc(F)c(Cl)c2F)n1 [Example 192, (S)—N-(3-Chloro-2,4-difluorophenyl)-N-methyl-3-(6-methyl-4-(trifluoromethyl)pyridin-2-yl)-2-oxo-1-(2-(piperazin-1-yl)ethyl)imidazolidine-4-carboxamide] |

Same assay, conditions: read-out: Polθ IC50; full length N-His, C-term FLAG tagged Polθ, PicoGreen fluorescence, 12 point concentration response

| IC50 | Structure (SMILES) |
| --- | --- |
| 61 nM | Cc1cccc(N(C)C(=O)[C@@H]2[C@@H](O)CCN2c2nc(C)cc(C(F)(F)F)c2C#N)c1 [Example 26, (2S,3S)-1-(3-Cyano-6-methyl-4-(trifluoromethyl)pyridin-2-yl)-3-hydroxy-N-methyl-N-(m-tolyl)pyrrolidine-2-carboxamide] |
| 25 nM | Cc1cc(C(F)(F)F)cc(N2C(=O)[C@@H](O)C[C@H]2C(=O)N(C)c2ccc(F)c(Cl)c2)n1 [Example 74, (2S,4S)—N-(3-Chloro-4-fluorophenyl)-4-hydroxy-N-methyl-1-(6-methyl-4-(trifluoromethyl)-pyridin-2-yl)-5-oxopyrrolidine-2-carboxamide] |
| 15 nM | Cc1cc(C(F)(F)F)cc(N2C(=O)OC[C@H]2C(=O)N(C)c2cccc(Cl)c2)n1 [Example 87, (S)-N-(3-Chlorophenyl)-N-methyl-3-(6-methyl-4-(trifluoromethyl)pyridin-2-yl)-2-oxooxazolidine-4-carboxamide] |
